According to BindingDB's records for PubMed 7965746 (U. 109, 1994):
pKi: −log10 of the molar value. Several values for one entry are separate records, joined by “and”; a condition that tells them apart may be missing. Equal values may be shown once.

These compounds were tested against Hrh3 protein (Rattus norvegicus, UniProt Q5PPG3).
Chain of Hrh3 protein (Q5PPG3 whole entry): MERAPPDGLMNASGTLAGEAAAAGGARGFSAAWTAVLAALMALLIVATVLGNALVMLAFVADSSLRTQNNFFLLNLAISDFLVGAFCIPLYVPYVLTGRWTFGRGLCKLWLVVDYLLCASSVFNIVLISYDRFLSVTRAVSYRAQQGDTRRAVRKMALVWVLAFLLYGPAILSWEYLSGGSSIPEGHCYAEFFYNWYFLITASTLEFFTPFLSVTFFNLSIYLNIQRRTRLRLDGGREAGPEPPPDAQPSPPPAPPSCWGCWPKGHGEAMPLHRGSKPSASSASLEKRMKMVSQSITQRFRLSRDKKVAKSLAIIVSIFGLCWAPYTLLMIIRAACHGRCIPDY

Compound | pKi
C[C@@H](N)Cc1c[nH]cn1 | 8.40 and 9.30
S=C(NC1CCCCC1)N1CCC(c2cnc[nH]2)CC1 | 8.40 and 8.70
CNC(=S)NCCCCc1cnc[nH]1 [1-[4-(1H-imidazol-5-yl)butyl]-3-methylthiourea] | 7.17 and 7.15 and 6.74
N=C(N)SCCc1cnc[nH]1 [2-(3H-imidazol-4-yl)ethylsulfanylmethanimidamide] | 9.82 and 9.00 and 10.00
Cc1[nH]cnc1CSCCNC(=N)NCCCc1c[nH]cn1 [2-[3-(1H-imidazol-5-yl)propyl]-1-(2-{[(5-methyl-1H-imidazol-4-yl)methyl]sulfanyl}ethyl)guanidine] | 7.12 and 7.19 and 7.35
C[C@H](N)Cc1c[nH]cn1 [CAS_75614-93-6] | 7.11 and 6.33 and 7.30
CCCCCCC(=O)N1CCC(c2cnc[nH]2)CC1 [Carboperamide] | 8.21 and 7.70
